Source: patent US20240279237A1, “FUSED BICYCLIC HETEROARYL COMPOUNDS USEFUL AS NLRP3 INHIBITORS” (Hoffmann-La Roche Inc., priority 2021, published 2024)
Where a name gives a salt, the structure may show the parent alone.

molecular target: T1, NLRP3 (Homo sapiens, UniProt Q96P20); assay: THP-1 Cells Pyroptosis Assay; type: cell-based; details: THP-1 cells with 1.0 μg/ml LPS; compound 3 hours; nigericin 5 μM 1 hr; resazurin readout
T1 construct: Seed THP-1 cells (25,000 cells/well) containing 1.0 μg/ml LPS in 40 μl of RPMI medium; host or cells: THP-1 cells
T1 sequence (Q96P20 whole entry): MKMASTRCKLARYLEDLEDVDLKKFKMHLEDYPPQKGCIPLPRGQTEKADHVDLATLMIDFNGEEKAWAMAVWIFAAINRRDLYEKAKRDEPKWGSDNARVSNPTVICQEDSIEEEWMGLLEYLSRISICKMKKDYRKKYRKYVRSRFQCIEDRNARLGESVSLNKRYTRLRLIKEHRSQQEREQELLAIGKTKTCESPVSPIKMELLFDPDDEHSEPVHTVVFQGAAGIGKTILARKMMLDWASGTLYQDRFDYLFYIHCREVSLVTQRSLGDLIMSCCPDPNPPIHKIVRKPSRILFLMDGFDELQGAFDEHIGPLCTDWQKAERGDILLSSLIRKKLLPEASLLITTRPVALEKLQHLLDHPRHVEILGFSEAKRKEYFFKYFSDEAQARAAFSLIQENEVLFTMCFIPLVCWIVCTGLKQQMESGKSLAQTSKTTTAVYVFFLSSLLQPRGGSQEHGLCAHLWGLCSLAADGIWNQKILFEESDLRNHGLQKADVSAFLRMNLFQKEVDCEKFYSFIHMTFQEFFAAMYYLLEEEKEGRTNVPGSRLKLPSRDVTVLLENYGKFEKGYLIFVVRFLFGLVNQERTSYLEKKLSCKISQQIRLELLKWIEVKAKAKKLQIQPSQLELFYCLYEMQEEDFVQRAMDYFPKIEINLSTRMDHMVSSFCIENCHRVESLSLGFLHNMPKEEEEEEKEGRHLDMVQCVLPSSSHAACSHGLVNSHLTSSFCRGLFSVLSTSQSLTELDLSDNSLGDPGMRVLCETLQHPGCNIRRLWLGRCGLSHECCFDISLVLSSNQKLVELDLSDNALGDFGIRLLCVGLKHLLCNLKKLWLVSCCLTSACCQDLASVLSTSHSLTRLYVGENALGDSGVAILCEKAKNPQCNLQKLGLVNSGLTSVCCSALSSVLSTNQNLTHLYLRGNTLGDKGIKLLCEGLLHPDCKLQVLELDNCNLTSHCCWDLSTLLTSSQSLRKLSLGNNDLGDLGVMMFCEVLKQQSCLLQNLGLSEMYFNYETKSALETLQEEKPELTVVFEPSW
Experimental: The cells were routinely passaged and grown to confluency (˜10^6 cells/ml). On the day of the experiment, THP-1 cells were harvested and resuspended into RPMI medium (without FBS). The cells were then counted and viability (>90%) checked by Trypan blue (Sigma #T8154). […] To this diluted cell solution was added LPS (Sigma #L4524) to give a 1 μg/ml Final Assay Concentration (FAC). 40 μl of the final preparation was aliquoted into each well of a 96-well plate. The plate thus prepared was used for compound screening.
The following method step-by-step assay was followed for compound screening. • 1. […] Incubate for 3 hours at 37° C., 5% CO2 • 4. Add 5 μl nigericin (Sigma #N7143) (FAC 5 μM) to all wells • 5. Incubate for 1 hr at 37° C., 5% CO2 • 6. At the end of the incubation period, spin plates at 300×g for 3 mins and remove supernatant • 7. Then add 50 μl of resazurin (Sigma #R7017) (FAC 100 μM resazurin in RPMI medium without FBS) and incubate plates for a further 1-2 hours at 37° C. and 5% CO2 • 8.

| Structure (SMILES) | IC50 |
| --- | --- |
| Cc1cc(C(F)(F)F)cc(O)c1-c1ccc2oc(N3CCNCC3)nc2n1 [Example 6, 3-Methyl-2-(2-piperazin-1-yloxazolo[4,5-b]pyridin-5-yl)-5-(trifluoromethyl)phenol formic acid salt] | 86.6 nM |
| Cc1cc(C(F)(F)F)cc(O)c1-c1ccc2oc(C3CCC(=O)NC3)nc2n1 (racemic) [Example 9, (rac)-5-(5-(2-Hydroxy-6-methyl-4-(trifluoromethyl)phenyl)oxazolo[4,5-b]pyridin-2-yl) piperidin-2-one] | 15.3 nM |
| COc1cc(C)c(-c2ccc3oc(N[C@@H]4CCCN(C)C4)nc3n2)c(O)c1 [Example 34, 5-Methoxy-3-methyl-2-[2-[[(3R)-1-methyl-3-piperidyl]amino]oxazolo[4,5-b]pyridin-5-yl]phenol] | 18.9 nM |
| Cc1cc(C(F)(F)F)cc(O)c1-c1ccc2oc(N3CCCC(O)C3)nc2n1 (single isomer, unassigned) [Example 3A, (3R or 3S)-1-[5-[2-hydroxy-6-methyl-4-(trifluoromethyl)phenyl]oxazolo[4,5-b]pyridin-2-yl]piperidin-3-ol] | 75 nM |
| CCN1CCC(Nc2nc3nc(-c4c(C)cc(C(F)(F)F)cc4O)ccc3o2)C1 (stereo not drawn) [Example 131, 2-[2-[(1-Ethylpyrrolidin-3-yl)amino]oxazolo[4,5-b]pyridin-5-yl]-3-methyl-5-(trifluoromethyl)phenol] | 9.6 nM |
| COCc1cc(Cl)cc(O)c1-c1ccc2oc(N[C@@H]3C[C@H](O)CN(C)C3)nc2n1 [Example 100, (3S,5R)-5-[[5-[4-Chloro-2-hydroxy-6-(methoxymethyl)phenyl]oxazolo[4,5-b]pyridin-2-yl]amino]-1-methyl-piperidin-3-ol] | 18.4 nM |
| Cc1cc(C#N)cc(O)c1-c1ccc2oc(NC3CCCN4CCCC34)nc2n1 (single isomer, unassigned) [Example 139B, 4-[2-[[(8R,8aR)-1,2,3,5,6,7,8,8a-Octahydroindolizin-8-yl]amino]oxazolo[4,5-b]pyridin-5-yl]-3-hydroxy-5-methyl-benzonitrile or 4-[2-[[(8S,8aS)-1,2,3,5,6,7,8,8a-octahydroindolizin-8-yl]amino]oxazolo[4,5-b]pyridin-5-yl]-3-hydroxy-5-methyl-benzonitrile] | 59.9 nM |
| Cc1cc(C(F)(F)F)cc(O)c1-c1ccc2[nH]c(C3CCCN3)nc2n1 (racemic) [Example 17, (rac)-3-Methyl-2-(2-(pyrrolidin-2-yl)-1H-imidazo[4,5-b]pyridin-5-yl)-5-(trifluoro-methyl)phenol] | 183 nM |
| CCN1CCC[C@@H](Nc2nc3nc(-c4c(C)cccc4O)ccc3o2)C1 [Example 125, 2-[2-[[(3R)-1-Ethyl-3-piperidyl]amino]oxazolo[4,5-b]pyridin-5-yl]-3-methyl-phenol] | 3 nM |
| CNC1CCCC(Nc2nc3nc(-c4c(C)cc(C(F)(F)F)cc4O)ccc3o2)C1 (mixture of isomers) [Example 7, 3-Methyl-2-[2-[[3-(methylamino)cyclohexyl]amino]oxazolo[4,5-b]pyridin-5-yl]-5-(trifluoromethyl)phenol] | 82.1 nM |
| Cc1cc(C(F)(F)F)cc(O)c1-c1ccc2[nH]c(C3CCCCN3C)nc2n1 (racemic) [Example 16, (rac)-3-Methyl-2-(2-(1-methylpiperidin-2-yl)-3H-imidazo[4,5-b]pyridin-5-yl)-5-(trifluoromethyl)phenol] | 330 nM |
| Cc1cc(C(F)(F)F)cc(O)c1-c1ccc2oc(N3CCCC(O)C3)nc2n1 (single isomer, unassigned) [Example 3B, (3S or 3R)-1-[5-[2-hydroxy-6-methyl-4-(trifluoromethyl)phenyl]oxazolo[4,5-b]pyridin-2-yl]piperidin-3-ol] | 28.6 nM |
| CCN1CCC[C@@H](Nc2nc3nc(-c4c(O)cccc4C#N)ccc3o2)C1 [Example 119, 2-[2-[[(3R)-1-Ethyl-3-piperidyl]amino]oxazolo[4,5-b]pyridin-5-yl]-3-hydroxy-benzonitrile] | 23 nM |
| Cc1cc(Cl)cc(O)c1-c1ccc2oc(NC3CCC4CCCN4C3)nc2n1 (stereo not drawn) [Example 65, 2-[2-(1,2,3,5,6,7,8,8a-Octahydroindolizin-6-ylamino)oxazolo[4,5-b]pyridin-5-yl]-5-chloro-3-methyl-phenol] | 20.3 nM |
| Cc1cc(C(F)(F)F)cc(O)c1-c1ccc2oc(N3CCO[C@H]4CNC[C@@H]43)nc2n1 [Example 64B, 2-[2-[(4aS,7aS)-3,4a,5,6,7,7a-Hexahydro-2H-pyrrolo[3,4-b][1,4]oxazin-4-yl]oxazolo[4,5-b]pyridin-5-yl]-3-methyl-5-(trifluoromethyl)phenol] | 13.9 nM |
| CN1CCCC(Nc2nc3nc(-c4c(O)cc(C(F)(F)F)cc4C(F)F)ccc3o2)C1 [Example 30, 3-(Difluoromethyl)-2-[2-[[(3R)-1-methyl-3-piperidyl]amino]oxazolo[4,5-b]pyridin-5-yl]-5-(trifluoromethyl)phenol;2,2,2-trifluoroacetic acid salt] | 4.5 nM |
| CCN1CCC[C@@H](Nc2nc3nc(-c4c(C)cc(C#N)cc4O)cnc3o2)C1 [Example 109, 4-[2-[[(3R)-1-Ethyl-3-piperidyl]amino]oxazolo[4,5-b]pyrazin-5-yl]-3-hydroxy-5-methyl-benzonitrile;2,2,2-trifluoroacetic acid] | 1.4 nM |
| CCN1C[C@H](O)C[C@@H](Nc2nc3nc(-c4c(C)cc(Cl)cc4O)ccc3o2)C1 [Example 68, (3R,5R)-5-[[5-(4-Chloro-2-hydroxy-6-methyl-phenyl)oxazolo[4,5-b]pyridin-2-yl]amino]-1-ethyl-piperidin-3-ol;formic acid] | 62.4 nM |
| Cc1cc(F)cc(O)c1-c1ccc2oc(N[C@@H]3CCCN(C)C3)nc2n1 [Example 50, 5-Fluoro-3-methyl-2-[2-[[(3R)-1-methyl-3-piperidyl]amino]oxazolo[4,5-b]pyridin-5-yl]phenol] | 1.7 nM |
| CCN1CCC[C@@H](Nc2nc3nc(-c4c(C)cc(C(F)F)cc4O)ccc3o2)C1 [Example 122, 5-(Difluoromethyl)-2-[2-[[(3R)-1-ethyl-3-piperidyl]amino]oxazolo[4,5-b]pyridin-5-yl]-3-methyl-phenol;2,2,2-trifluoroacetic acid] | 1 nM |
| Cc1cc(Cl)cc(O)c1-c1ccc2oc(N[C@@H]3CCCN(CCO)C3)nc2n1 [Example 93, 5-Chloro-2-[2-[[(3R)-1-(2-hydroxyethyl)-3-piperidyl]amino]oxazolo[4,5-b]pyridin-5-yl]-3-methyl-phenol] | 2.1 nM |
| COCCCN1CCC[C@@H](Nc2nc3nc(-c4c(C)cc(Cl)cc4O)ccc3o2)C1 [Example 96, 5-Chloro-2-[2-[[(3R)-1-(3-methoxypropyl)-3-piperidyl]amino]oxazolo[4,5-b]pyridin-5-yl]-3-methyl-phenol] | 56.1 nM |
| Cc1cc(Cl)cc(O)c1-c1ccc2oc(N3CCOC4CCN(C)CC43)nc2n1 (stereo not drawn) [Example 42, 5-Chloro-3-methyl-2-[2-(6-methyl-3,4a,5,7,8,8a-hexahydro-2H-pyrido[4,3-b][1,4]oxazin-4-yl)oxazolo[4,5-b]pyridin-5-yl]phenol] | 5.1 nM |
| CCN1CCCC(Nc2nc3nc(-c4c(C)cc(C(F)(F)F)cc4O)ccc3o2)C1 (racemic) [Example 1, (rac)-2-[2-[(1-Ethyl-3-piperidyl)amino]oxazolo[4,5-b]pyridin-5-yl]-3-methyl-5-(trifluoromethyl)phenol] | 1.9 nM |
